Test [1] deals with MOLT-4 cells. Description: MOLT-4 cell viability, MTT assay. Format: cell-based. Conditions: Homo sapiens, MOLT-4, 48 h. From the text:
The MTT colorimetric assay is based on the mitochondrial reduction of tetrazolium salt by living cells. The viable cell number is proportional to the production of formazan salts, which can be read spectrophotometrically at 540 nm. The CTG luminescent assay (CellTiter GLO, Promega) is based on a reagent which lyses cells and measures total adenosine triphosphate (ATP) content. The viable cell number is proportional to the production of ATP.
MOLT-4 cells were purchased from ATCC and cultivated in RPMI 1640 supplemented with 10% heat inactivated fetal bovine serum, penicillin (100 IU/mi), streptomycin (100 μg/ml) and L-glutamine (2 mM). Cells were cultured at 37° C. in a humidified atmosphere containing 5% […].
For MTT assay, cells were seeded in 96 microwell plates (150 μL per well) and exposed to the compounds for 48 h (3.16 fold serially diluted; 9 concentrations each, triplicates). At the end of incubation time, 15 μL of MTT solution (5 mg/ml) were added per well and the cells were incubated for another 4 h. Then, 100 μL of 10% Sodium Dodecyl Sulfate (SDS)/HCl 10 mM were added per well and the plate was incubated overnight, before measurement of optical density at 540 nm.
IC50, were calculated using standard four-parametric curve fitting. IC50 is defined as the compound concentration at which the MTT or CTG signal is reduced to 50% of that measured for the control. Results shown in Table 14 represent the mean of at least 2 independent experiments.
(In general: Tetrazolium dyes change colour on reduction, which living cells bring about.)

In test [2] the target is T1, Bcl-xL (Homo sapiens, UniProt Q07817).
T1 construct: Measured levels of Bcl-xL protein of HCT116 cells treated with the tested compounds; host or cells: HCT116
T1 sequence (Q07817 whole entry): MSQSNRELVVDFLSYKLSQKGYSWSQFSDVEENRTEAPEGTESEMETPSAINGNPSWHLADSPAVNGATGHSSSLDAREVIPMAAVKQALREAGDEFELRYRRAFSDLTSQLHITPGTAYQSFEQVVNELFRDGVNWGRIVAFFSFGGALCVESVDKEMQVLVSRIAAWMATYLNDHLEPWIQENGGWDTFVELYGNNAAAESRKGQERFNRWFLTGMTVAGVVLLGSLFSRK
Description: HCT116 Bcl-xL degradation, capillary-based immunoassay (WES). Format: cell-based. As to conditions: for DC50: HCT116, 24 h, 9-point serial dilution; for remaining activity at 0.01 µM / remaining activity at 0.1 µM: HCT-116, 24 h, % of untreated cells; for remaining activity at 0.01 µM: HCT116, 10 nM; for remaining activity at 0.1 µM: HCT116, 100 nM. In a few lines:
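Bcl-xL protein level by capillary WES immunoassay in HCT116 lysates, as % of untreated after cofilin normalization. Compound exposure was 24 h at 10 and 100 nM and/or a 9-point series, in quadruplicate. Four-parameter fitting gave the DC50.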

As to `Cc1ncsc1-c1ccc(CNC(=O)[C@@H]2C[C@@H](O)CN2C(=O)[C@@H](NC(=O)CCCC(=O)N2CCN(CC#Cc3ccc(OCCCc4sc(N5CCCc6c5nnc(Nc5nc7ccccc7s5)c6C)nc4C(=O)O)c(F)c3)CC2)C(C)(C)C)cc1` [Example 18, 2-[3-(1,3-benzothiazol-2-ylamino)-4-methyl-6,7-dihydro-5H-pyrido[2,3-c]pyridazin-8-yl]-5-[3-[2-fluoro-4-[3-[4-[5-[[(1S)-1-[(2S,4R)-4-hydroxy-2-[[4-(4-methylthiazol-5-yl)phenyl]methylcarbamoyl]pyrrolidine-1-carbonyl]-2,2-dimethyl-propyl]amino]-5-oxo-pentanoyl]piperazin-1-yl]prop-1-ynyl]phenoxy]propyl] thiazole-4-carboxylic acid], the IC50 in test [1] amounted to 2.72 nM. In addition, in test [2], the DC50 stood at 6.6 nM, the remaining activity at 0.01 µM is 52% and the remaining activity at 0.1 µM was determined as 52%.

`Cc1cc(N(CCCCCn2cc(COCCOCCOCCNC(=O)COc3cccc4c3C(=O)N(C3CCC(=O)NC3=O)C4=O)nn2)c2ccc(-c3cnn(CC45CC6(C)CC(C)(C4)CC(OCCN(C)C)(C6)C5)c3C)c(C(=O)O)n2)nnc1Nc1nc2ccccc2s1` (centres unmarked) [Example 63, 6-[[6-(1,3-benzothiazol-2-ylamino)-5-methyl-pyridazin-3-yl]-[5-[4-[2-[2-[2-[[2-[2-(2,6-dioxo-3-piperidyl)-1,3-dioxo-isoindolin-4-yl]oxyacetyl]amino]ethoxy]ethoxy]ethoxymethyl]triazol-1-yl]pentyl]amino]-3-[1-[[3-[2-(dimethylamino)ethoxy]-5,7-dimethyl-1-adamantyl]methyl]-5-methyl-pyrazol-4-yl]pyridine-2-carboxylic acid] returned an IC50 in test [1] of 86.4 nM. In test [2], half-maximal degradation (DC50) was put at 53 nM, the remaining activity at 0.01 µM was 61% and the remaining activity at 0.1 µM was found to be 39%.

On to `CNCC#Cc1ccc(OCCCc2sc(N(CCCc3cn(CCOCCOCCOCCNC(=O)COc4cccc5c4C(=O)N(C4CCC(=O)NC4=O)C5=O)nn3)c3cc(C)c(Nc4nc5ccccc5s4)nn3)nc2C(=O)O)c(F)c1` (centres unmarked) [Example 27, 2-[[6-(1,3-benzothiazol-2-ylamino)-5-methyl-pyridazin-3-yl]-[3-[1-[2-[2-[2-[2-[[2-[2-(2,6-dioxo-3-piperidyl)-1,3-dioxo-isoindolin-4-yl]oxyacetyl]amino]ethoxy]ethoxy]ethoxy]ethyl]triazol-4-yl]propyl]amino]-5-[3-[2-fluoro-4-[3-(methylamino)prop-1-ynyl]phenoxy]propyl]thiazole-4-carboxylic acid], for which, in test [1], it took 669 nM to reach half-maximal inhibition (IC50). In test [2], this compound registered a remaining activity at 0.01 µM of 60% and a remaining activity at 0.1 µM of 49%.

`Cc1cc(N(CCCCCn2cc(COCCOCCOCCNc3cccc4c3C(=O)N(C3CCC(=O)NC3=O)C4=O)nn2)c2ccc(-c3cnn(C[C@@]45C[C@]6(C)C[C@](C)(C4)C[C@](OCCN(C)C)(C6)C5)c3C)c(C(=O)O)n2)nnc1Nc1nc2ccccc2s1` (some centres unmarked) [Example 62, 6-[[6-(1,3-benzothiazol-2-ylamino)-5-methyl-pyridazin-3-yl]-[5-[4-[2-[2-[2-[[2-(2,6-dioxo-3-piperidyl)-1,3-dioxo-isoindolin-4-yl]amino]ethoxy]ethoxy]ethoxymethyl]triazol-1-yl]pentyl]amino]-3-[1-[[3-[2-(dimethylamino)ethoxy]-5,7-dimethyl-1-adamantyl]methyl]-5-methyl-pyrazol-4-yl]pyridine-2-carboxylic acid]: the half-inhibitory concentration (IC50) in test [1] worked out at 24.1 nM. In test [2], it took 13.6 nM to reach half-maximal degradation (DC50), the remaining activity at 0.01 µM came out at 47% and the remaining activity at 0.1 µM is 7%.

As for `Cc1cc(N(CCCCCn2cc(CCCCCCCNc3cccc4c3C(=O)N(C3CCC(=O)NC3=O)C4=O)nn2)c2ccc(-c3cnn(CC45CC6(C)CC(C)(C4)CC(OCCN(C)C)(C6)C5)c3C)c(C(=O)O)n2)nnc1Nc1nc2ccccc2s1` (centres unmarked) [Example 150, 6-[[6-(1,3-benzothiazol-2-ylamino)-5-methyl-pyridazin-3-yl]-[5-[4-[7-[[2-(2,6-dioxo-3-piperidyl)-1,3-dioxo-isoindolin-4-yl]amino]heptyl]triazol-1-yl]pentyl]amino]-3-[1-[[3-[2-(dimethylamino)ethoxy]-5,7-dimethyl-1-adamantyl]methyl]-5-methyl-pyrazol-4-yl]pyridine-2-carboxylic acid], the half-maximal inhibitory concentration (IC50) in test [1] was 19.3 nM. This compound also came in with a DC50 in test [2] of 14.5 nM.

Compound `Cc1cc(N(CCCCCn2cc(COCCOCCNc3cccc4c3C(=O)N(C3CCC(=O)NC3=O)C4=O)nn2)c2ccc(-c3cnn(CC45CC6(C)CC(C)(C4)CC(OCCN(C)C)(C6)C5)c3C)c(C(=O)O)n2)nnc1Nc1nc2ccccc2s1` (centres unmarked) [Example 61, 6-[[6-(1,3-benzothiazol-2-ylamino)-5-methyl-pyridazin-3-yl]-[5-[4-[2-[2-[[2-(2,6-dioxo-3-piperidyl)-1,3-dioxo-isoindolin-4-yl]amino]ethoxy]ethoxymethyl]triazol-1-yl]pentyl]amino]-3-[1-[[3-[2-(dimethylamino)ethoxy]-5,7-dimethyl-1-adamantyl]methyl]-5-methyl-pyrazol-4-yl]pyridine-2-carboxylic acid] returned an IC50 in test [1] of 16.4 nM. In test [2], this compound registered a DC50 of 7.49 nM, a remaining activity at 0.01 µM of 46% and a remaining activity at 0.1 µM of 16%.

`Cc1ncsc1-c1ccc(CNC(=O)[C@@H]2C[C@@H](O)CN2C(=O)[C@@H](NC(=O)CCCCCCC(=O)N2CCN(CC#Cc3ccc(OCCCc4sc(N5CCCc6c5nnc(Nc5nc7ccccc7s5)c6C)nc4C(=O)O)c(F)c3)CC2)C(C)(C)C)cc1` [Example 20, 2-[3-(1,3-benzothiazol-2-ylamino)-4-methyl-6,7-dihydro-5H-pyrido[2,3-c]pyridazin-8-yl]-5-[3-[2-fluoro-4-[3-[4-[8-[[(1S)-1-[(2S,4R)-4-hydroxy-2-[[4-(4-methylthiazol-5-yl)phenyl]methylcarbamoyl]pyrrolidine-1-carbonyl]-2,2-dimethyl-propyl]amino]-8-oxo-octanoyl]piperazin-1-yl]prop-1-ynyl]phenoxy]propyl]thiazole-4-carboxylic acid] had an IC50 in test [1] of 4.49 nM. In addition, in test [2], the remaining activity at 0.01 µM came to 51% and the remaining activity at 0.1 µM turned out to be 31%.

As for `Cc1cc(N(CCCCCn2cc(COCCOCCOCCOCCNc3cccc4c3C(=O)N(C3CCC(=O)NC3=O)C4=O)nn2)c2ccc(-c3cnn(CC45CC6(C)CC(C)(C4)CC(OCCN(C)C)(C6)C5)c3C)c(C(=O)O)n2)nnc1Nc1nc2ccccc2s1` (centres unmarked) [Example 153, 6-[[6-(1,3-benzothiazol-2-ylamino)-5-methyl-pyridazin-3-yl]-[5-[4-[2-[2-[2-[2-[[2-(2,6-dioxo-3-piperidyl)-1,3-dioxo-isoindolin-4-yl]amino]ethoxy]ethoxy]ethoxy]ethoxymethyl]triazol-1-yl]pentyl]amino]-3-[1-[[3-[2-(dimethylamino)ethoxy]-5,7-dimethyl-1-adamantyl]methyl]-5-methyl-pyrazol-4-yl]pyridine-2-carboxylic acid], the IC50 in test [1] is 27.5 nM. In test [2], this compound returned a remaining activity at 0.01 µM of 59% and a remaining activity at 0.1 µM of 40%.

The compound `Cc1cc(N(CCCCCn2cc(COCCOCCOCC(=O)Nc3cccc4c3CN(C3CCC(=O)NC3=O)C4=O)nn2)c2ccc(-c3cnn(CC45CC6(C)CC(C)(C4)CC(OCCN(C)C)(C6)C5)c3C)c(C(=O)O)n2)nnc1Nc1nc2ccccc2s1` (centres unmarked) [Example 28, 6-[[6-(1,3-benzothiazol-2-ylamino)-5-methyl-pyridazin-3-yl]-[5-[4-[2-[2-[2-[[2-(2,6-dioxo-3-piperidyl)-1-oxo-isoindolin-4-yl]amino]-2-oxo-ethoxy]ethoxy]ethoxymethyl]triazol-1-yl]pentyl]amino]-3-[1-[[3-[2-(dimethylamino)ethoxy]-5,7-dimethyl-1-adamantyl]methyl]-5-methyl-pyrazol-4-yl]pyridine-2-carboxylic acid] came in with an IC50 in test [1] of 8.63 nM. For the same compound, in test [2], the remaining activity at 0.01 µM came to 81% and the remaining activity at 0.1 µM amounted to 46%.

As to `Cc1c(Nc2nc3ccccc3s2)nnc2c1CCCN2c1ccc(-c2cnn(CC34CC5(C)CC(C)(C3)CC(OCCN(C)CCCCCCCCCCCCOc3ccc6c(c3)C(=O)N(C3CCC(=O)NC3=O)C6=O)(C5)C4)c2C)c(C(=O)O)n1` (centres unmarked) [Example 140, 6-[3-(1,3-benzothiazol-2-ylamino)-4-methyl-6,7-dihydro-5H-pyrido[2,3-c]pyridazin-8-yl]-3-[1-[[3-[2-[12-[2-(2,6-dioxo-3-piperidyl)-1,3-dioxo-isoindolin-5-yl]oxydodecyl-methyl-amino]ethoxy]-5,7-dimethyl-1-adamantyl]methyl]-5-methyl-pyrazol-4-yl]pyridine-2-carboxylic acid], the IC50 in test [1] was 0.311 nM. In test [2], this compound returned a DC50 of 3.08 nM.

By IC50 is commonly meant the concentration at which inhibition is half-maximal. For orientation: DC50 means the concentration giving 50% degradation. The low end stands for a more potent degrader, the high end for a less potent degrader. A word on the remaining activity: it is the signal under treatment as a percentage of the control signal.
